# Measurements as given in US7390806B2, “Antibiotics containing borinic acid complexes and methods of use” (Anacor Pharmaceuticals, Inc., priority 2002, dated 2008).
# Where two headings read alike, the source gives them in different places.
# What was measured:
# [1] = test system: M. tuberculosis H37Rv; assay: Anti-mycobacterium in vitro activity, H37Rv; assay type: cell-based, Mycobacterium tuberculosis; conditions: Sensitive strain; for MIC: Mycobacterium tuberculosis, H37RV
# [2] = test system: S. pneumoniae ATCC 6301; assay: MIC determination, S. pneumoniae ATCC 6301; assay type: cell-based, Streptococcus pneumoniae; conditions: for MIC S. pneumonia ATCC 6301: Table 2; for MIC: Streptococcus pneumoniae; for MIC S. pneumoniae ATCC 6301: Table 1
# [3] = test system: S. epidermidis ATCC 12228; assay: MIC determination, S. epidermidis ATCC 12228; assay type: cell-based, Staphylococcus epidermidis; conditions: for MIC: Staphylococcus epidermidis, read-out: MIC S. epidermidis ATCC 12228
# [4] = test system: E. faecalis ATCC 29212; assay: MIC determination, E. faecalis ATCC 29212; assay type: cell-based, Enterococcus faecalis; conditions: for MIC: Enterococcus faecalis, read-out: MIC E. faecalis ATCC 29212
# [5] = test system: S. aureus ATCC 29213; assay: MIC determination, S. aureus ATCC 29213; assay type: cell-based, Staphylococcus aureus; conditions: for MIC: Staphylococcus aureus, read-out: MIC S. aureus ATCC 29213
# [6] = test system: E. faecium CT-26; assay: MIC determination, E. faecium CT-26; assay type: cell-based, Enterococcus faecium; conditions: for MIC: Enterococcus faecium, read-out: MIC E. faecium CT-26
# [7] = test system: H. influenzae ATCC 49766; assay: MIC determination, H. influenzae ATCC 49766; assay type: cell-based, Haemophilus influenzae; conditions: Table 2; for MIC: Haemophilus influenzae, ATCC49766
# [8] = test system: M. catarrhalis ATCC 25238; assay: MIC determination, M. catarrhalis ATCC 25238; assay type: cell-based; conditions: Moraxella catarrhalis, ATCC25238, Table 1; read-out: MIC M. catarrhalis ATCC 25238
# [9] = ATCC6301, Table 1, read-out: MIC S. pneumoniae ATCC 6301
# [10] = ATCC6301, Table 2, read-out: MIC S. pneumonia ATCC 6301
structure (smiles),measurement,setting,value
CC[C@@H](CO)NCCN[C@@H](CC)CO [Ethambutol],MIC,[1],< 1 µg/mL
"Cc1cc(Cl)ccc1B(OC(=O)c1ncccc1O)c1ccc(Cl)cc1C [Compound 118, bis(2-methyl-4-chlorophenyl)borinic acid 3-hydroxypicolinate ester]",MIC S. pneumonia ATCC 6301,[2],0.12 micrograms per ml
same,MIC S. epidermidis ATCC 12228,[3]; Table 2,0.25 micrograms per ml
same,MIC E. faecalis ATCC 29212,[4]; Table 2,1 micrograms per ml
same,MIC S. aureus ATCC 29213,[5]; Table 2,1 micrograms per ml
same,MIC E. faecium CT-26,[6]; Table 2,1 micrograms per ml
same,MIC H. influenzae ATCC 49766,[7],16 micrograms per ml
CC1(C)O[B-](c2cccc(Cl)c2)(c2cccc(Cl)c2)[n+]2cccc(O)c21 [Compound 102],MIC S. pneumonia ATCC 6301,[2],0.25 micrograms per ml
same,MIC S. epidermidis ATCC 12228,[3]; Table 2,1 micrograms per ml
same,MIC E. faecalis ATCC 29212,[4]; Table 2,64 micrograms per ml
same,MIC S. aureus ATCC 29213,[5]; Table 2,0.5 micrograms per ml
same,MIC E. faecium CT-26,[6]; Table 2,2 micrograms per ml
same,MIC H. influenzae ATCC 49766,[7],64 micrograms per ml
"Cc1onc(-c2ccccc2Cl)c1C(=O)N[C@@H]1C(=O)N2[C@@H]1SC(C)(C)[C@@H]2C(=O)O [Cloxacillin, reference compound]",MIC,[2]; [9],0.125 µg/mL
same,MIC,[2]; [10],0.12 µg/mL
same,MIC,[8],1 µg/mL
same,MIC,"[3]; ATCC12228, Table 1",0.25 µg/mL
same,MIC,"[3]; ATCC12228, Table 2",0.25 µg/mL
same,MIC,"[4]; ATCC29212, Table 1",16 µg/mL
same,MIC,"[4]; ATCC29212, Table 2",16 µg/mL
same,MIC,"[5]; ATCC29213, Table 1",0.125 µg/mL
same,MIC,"[5]; ATCC29213, Table 2",0.12 µg/mL
same,MIC,"[6]; CT26, Table 1",64 µg/mL
same,MIC,"[6]; CT26, Table 2",64 µg/mL
same,MIC,[7],8 µg/mL
CC1COc2c(N3CCN(C)CC3)c(F)cc3c(=O)c(C(=O)O)cn1c23 (stereo not shown) [Ofloxacin],MIC,[1],4 µg/mL
"Oc1cccc2cccnc12 [Compound 10, 8-hydroxyquinoline]",MIC S. pneumoniae ATCC 6301,[2],2 micrograms per ml
same,MIC S. epidermidis ATCC 12228,[3]; Table 1,2 micrograms per ml
same,MIC E. faecalis ATCC 29212,[4]; Table 1,32 micrograms per ml
same,M. tuberculosis MIC H37Rv,[1],0.387 µg/mL
same,MIC S. aureus ATCC 29213,[5]; Table 1,1 micrograms per ml
same,MIC E. faecium CT-26,[6]; Table 1,4 micrograms per ml
CO[C@H]1/C=C/O[C@@]2(C)Oc3c(C)c(O)c4c(O)c(c(/C=N/N5CCN(C)CC5)c(O)c4c3C2=O)NC(=O)/C(C)=C\C=C\[C@H](C)[C@H](O)[C@@H](C)[C@@H](O)[C@@H](C)[C@H](OC(C)=O)[C@@H]1C [Rifampicin],MIC,[1],< 0.125 µg/mL
"Clc1cccc(B(OCCc2c[nH]cn2)c2cccc(Cl)c2)c1 [Compound 121, Bis(3-Chlorophenyl)borinic acid 4-(hydroxyethyl)imidazole ester]",MIC S. pneumonia ATCC 6301,[2],8 micrograms per ml
same,MIC S. epidermidis ATCC 12228,[3]; Table 2,4 micrograms per ml
same,MIC E. faecalis ATCC 29212,[4]; Table 2,32 micrograms per ml
same,MIC S. aureus ATCC 29213,[5]; Table 2,0.125 micrograms per ml
same,MIC E. faecium CT-26,[6]; Table 2,32 micrograms per ml
same,MIC H. influenzae ATCC 49766,[7],4 micrograms per ml
"Oc1cccc2cccnc12 [Compound 51, 8-hydroxyquinoline]",MIC S. epidermidis ATCC 12228,[3]; Table 1,1 micrograms per ml
same,MIC E. faecalis ATCC 29212,[4]; Table 1,8 micrograms per ml
same,M. tuberculosis MIC H37Rv,[1],0.387 µg/mL
same,MIC S. aureus ATCC 29213,[5]; Table 1,2 micrograms per ml
same,MIC E. faecium CT-26,[6]; Table 1,2 micrograms per ml
N[C@@H]1CON=C1O [cycloserine],MIC,[1],8 µg/mL
"CO/N=C(\C(=O)N[C@@H]1C(=O)N2C(C(=O)O)=C(CSc3nc(=O)c(=O)[nH]n3C)CS[C@H]12)c1csc(N)n1 [Ceftriaxone, reference compound]",MIC,[2]; [9],0.125 µg/mL
same,MIC,[2]; [10],< 0.125 µg/mL
same,MIC,[8],0.125 µg/mL
same,MIC,"[3]; ATCC12228, Table 1",1 µg/mL
same,MIC,"[3]; ATCC12228, Table 2",1 µg/mL
same,MIC,"[4]; ATCC29212, Table 1",64 µg/mL
same,MIC,"[4]; ATCC29212, Table 2",64 µg/mL
same,MIC,"[5]; ATCC29213, Table 1",2 µg/mL
same,MIC,"[5]; ATCC29213, Table 2",2 µg/mL
same,MIC,"[6]; CT26, Table 1",64 µg/mL
same,MIC,"[6]; CT26, Table 2",64 µg/mL
same,MIC,[7],0.12 µg/mL
"O=C(O)c1ncccc1O [Compound 116, 3-hydroxypicolinic acid]",MIC S. pneumonia ATCC 6301,[2],0.25 micrograms per ml
same,MIC S. epidermidis ATCC 12228,[3]; Table 2,1 micrograms per ml
same,MIC E. faecalis ATCC 29212,[4]; Table 2,4 micrograms per ml
same,MIC S. aureus ATCC 29213,[5]; Table 2,2 micrograms per ml
same,MIC E. faecium CT-26,[6]; Table 2,4 micrograms per ml
same,MIC H. influenzae ATCC 49766,[7],64 micrograms per ml
"Oc1cccc2cccnc12 [Compound 75, 8-hydroxyquinoline]",MIC S. pneumoniae ATCC 6301,[2],2 micrograms per ml
same,MIC S. epidermidis ATCC 12228,[3]; Table 1,1 micrograms per ml
same,MIC E. faecalis ATCC 29212,[4]; Table 1,64 micrograms per ml
same,M. tuberculosis MIC H37Rv,[1],0.775 µg/mL
same,MIC S. aureus ATCC 29213,[5]; Table 1,2 micrograms per ml
same,MIC E. faecium CT-26,[6]; Table 1,4 micrograms per ml
NC[C@H]1O[C@H](O[C@H]2[C@H](O)[C@@H](O[C@H]3O[C@H](CO)[C@@H](O)[C@H](N)[C@H]3O)[C@H](N)C[C@@H]2N)[C@H](O)[C@@H](O)[C@@H]1O [Kanamycin],MIC,[1],< 2 µg/mL
